Measured values from patent US7829565B2, “Indole derivatives as serotonin reuptake inhibitors” (Merck Patent GmbH, priority 2003, dated 2010).

Experiments:
5-HT1A receptors = target: T1, 5-HT1A receptors (Rattus norvegicus, UniProt P19327); assay: 5-HT1A receptor binding test
T1 construct: from tissue; host or cells: hippocampus (membranes)
T1 sequence (P19327 1-422): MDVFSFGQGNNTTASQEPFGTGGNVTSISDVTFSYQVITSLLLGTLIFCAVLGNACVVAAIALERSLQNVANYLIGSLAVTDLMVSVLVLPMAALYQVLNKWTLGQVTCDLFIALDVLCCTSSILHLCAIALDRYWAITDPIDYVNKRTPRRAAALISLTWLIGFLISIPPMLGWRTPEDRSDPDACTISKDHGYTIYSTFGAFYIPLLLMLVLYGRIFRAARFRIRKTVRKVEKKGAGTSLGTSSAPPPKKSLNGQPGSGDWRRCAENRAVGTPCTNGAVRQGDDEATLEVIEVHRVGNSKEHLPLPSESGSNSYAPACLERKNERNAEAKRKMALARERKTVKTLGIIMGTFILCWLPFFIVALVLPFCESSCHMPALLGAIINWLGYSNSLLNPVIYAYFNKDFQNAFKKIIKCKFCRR
Source text: (§1) In particular, they inhibit 5-HT reuptake. […] Due to a 5-HT-agonistic action and 5-HT reuptake inhibition, serotonin remains in the synaptic cleft for longer and the serotonin action is reinforced. Active ingredients having such properties are therefore particularly suitable as antidepressants and anxiolytics. The compounds of the formula I inhibit the binding of tritiated serotonin ligands to hippocampal receptors (Cossery et al., European J. Pharmacol. 140 (1987), 143-155) and synaptosomal serotonin reuptake (Sherman et al., Life Sci. 23 (1978), 1863-1870).
The 5-HT1A-agonistic action can be measured in vitro, for example, with the aid of the (serotonin) binding test, as described by Matzen et al. (J. Med. Chem., 43 (2000), 1149-57), in particular on page 1156 with reference to Eur. J. Pharmacol., 140 (1987), 143-155. In addition, the 5-HT1A-agonistic action can be measured with the aid of the GTPgammaS test described by Newman-Tancredi et al. (Eur. J. Pharmacol. 307 (1996), 107-11).
Many of the compounds synthesised have nanomolar affinity to the 5-HT1A receptors and nanomolar reuptake inhibition of serotonin. • 5-{4-[4-(5-Cyano-2-oxo-2,3-dihydro-1H-indol-3-yl)butyl]piperazin-1-yl}-benzofuran-2-carboxamide

serotonin reuptake = target: T2, serotonin reuptake (Rattus norvegicus, UniProt P31652); assay: serotonin reuptake inhibition (SSRI); format: biochemical
T2 construct: synaptosomal serotonin reuptake (Sherman et al., Life Sci. 23 (1978), 1863-1870); from tissue
Source text: as §1
For in-vitro determination of 5-HT reuptake inhibition, synaptosomal reuptake inhibition (Wong et al., Neuropsycho-pharmacology 8 (1993), 22-33) and p-chloroamphetamine antagonism (Fuller et al. J. Pharmacol. Exp. Ther. 212 (1980), 115-119) is measured. Serotonin reuptake inhibition can in addition also be investigated with the aid of the Waldmeier method ex vivo in the brain tissue of mice (European J. Pharmacol. 1977, 46, 387-92), and by microdialysis, which is described by DiChiara (Trends in Pharmacol. Sci., 11 (1990), 116-121). To this end, a physiological solution is perfused through a microdialysis container implanted into a rat brain. During this perfusion, the solution takes up the neurotransmitters liberated in the brain and is subsequently analysed. […]

T2 sequence (P31652 whole entry): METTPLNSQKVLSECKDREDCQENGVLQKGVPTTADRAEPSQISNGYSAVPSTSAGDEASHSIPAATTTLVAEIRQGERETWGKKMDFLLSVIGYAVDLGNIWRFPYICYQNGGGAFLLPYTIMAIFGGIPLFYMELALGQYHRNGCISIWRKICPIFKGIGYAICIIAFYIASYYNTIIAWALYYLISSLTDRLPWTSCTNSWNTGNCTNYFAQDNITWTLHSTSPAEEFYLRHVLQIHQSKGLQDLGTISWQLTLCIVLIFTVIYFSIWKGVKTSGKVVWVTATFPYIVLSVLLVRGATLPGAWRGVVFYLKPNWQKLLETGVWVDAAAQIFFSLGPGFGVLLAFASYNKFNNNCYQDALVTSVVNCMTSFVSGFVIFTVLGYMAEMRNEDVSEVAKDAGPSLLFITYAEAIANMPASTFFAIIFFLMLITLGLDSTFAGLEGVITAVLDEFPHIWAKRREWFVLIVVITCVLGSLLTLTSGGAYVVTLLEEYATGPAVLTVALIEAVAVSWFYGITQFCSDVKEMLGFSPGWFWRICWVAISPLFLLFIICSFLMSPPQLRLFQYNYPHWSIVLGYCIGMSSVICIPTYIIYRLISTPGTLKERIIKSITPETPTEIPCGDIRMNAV

IC50 (5-HT1A receptors) [nM]	IC50 (serotonin reuptake) [nM]	SMILES
1.7	2.9	N#Cc1ccc2c(c1)C(CCCCN1CCN(c3ccc4oc(C(N)=O)cc4c3)CC1)C(=O)N2 (stereo not shown) [5-{4-[4-(5-cyano-2-oxo-2,3-dihydro-1H-indol-3-yl)butyl]-piperazin-1-yl}benzofuran-2-carboxamide]
18	2.7	N#Cc1cc2c(CCCCN3CCN(c4ccc5oc(C(N)=O)cc5c4)CC3)c[nH]c2cc1O [5-{4-[4-(5-cyano-6-hydroxy-1H-indol-3-yl)butyl]piperazin-1-yl}-benzofuran-2-carboxamide]
